Measurements from US11992497B2 (priority 2021, dated 2024).
Entries after “also recorded” stand apart in the source; their conditions may differ. Like-named read-outs stand apart in the source and are kept apart here.

Assays:
UGT1A4 = biological target: T1, UGT1A4 (Homo sapiens, UniProt P22310); assay: UGT reaction phenotyping, recombinant Supersomes; type: in vitro ADME
T1 construct: purchased BD Biosciences
T1 sequence (P22310 29-534): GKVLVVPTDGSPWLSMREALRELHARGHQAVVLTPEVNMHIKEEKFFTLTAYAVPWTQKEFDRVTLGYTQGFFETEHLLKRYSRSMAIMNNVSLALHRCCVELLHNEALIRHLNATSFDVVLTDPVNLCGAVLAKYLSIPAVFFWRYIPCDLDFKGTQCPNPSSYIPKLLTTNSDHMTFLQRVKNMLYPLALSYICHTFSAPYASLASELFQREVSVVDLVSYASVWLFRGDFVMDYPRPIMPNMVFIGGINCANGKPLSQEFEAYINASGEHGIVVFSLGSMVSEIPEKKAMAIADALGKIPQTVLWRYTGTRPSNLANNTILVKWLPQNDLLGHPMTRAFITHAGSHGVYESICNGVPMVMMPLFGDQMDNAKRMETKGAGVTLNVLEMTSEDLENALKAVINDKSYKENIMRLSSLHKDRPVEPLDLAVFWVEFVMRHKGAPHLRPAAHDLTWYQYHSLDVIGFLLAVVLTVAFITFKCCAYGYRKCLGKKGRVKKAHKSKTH
Text: Experimental Summary: UGT Reaction Phenotyping (7 Isoforms).

[1] = PK and Tmax of CBD and Compound 3 after IP administration; type: in vivo; details: male C57BL/6 mice; for Cmax / AUC(0-t): mouse, in vivo; for AUC(0-t): read-out: AUC(0-t) (obs area)
Text: The purpose of this study was to determine the pharmacokinetics and time of maximum plasma (Tmax) of the test articles (TA) CBD and Compound 3 following intraperitoneal (IP) administration to male C57BL/6 mice. This method of TA delivery, dose and mouse strain was to be used in a subsequent Pentylenetetrazol (PTZ) induced seizure model for the evaluation of the TA's for anti-epileptic activity.

[2] = system: lipopolysaccharide (LPS)-induced inflammation; assay: Rat LPS model, serum pro-inflammatory cytokines; type: in vivo, Sprague Dawley rats; details: oral, 4 days; 2 h after LPS
Protocol: This assay was employed to determine the efficacies of CBG, compound 1, and compound 2 against lipopolysaccharide (LPS)-induced inflammation in Sprague Dawley rats.
Eight- to 10-week-old male rats were treated with CBG, Compound 1, and Compound 2, or a positive control (cyclosporin A) for four days prior to treatment with LPS. Twenty-eight (28) Sprague Dawley male rats, 8-10 weeks old, were used for this study. Animals were randomized by weight into one of 7 treatment groups as shown in Table 10 below and treated for 4 days with either vehicle control (Groups 1 and 2), Cyclosporin A (Neoral) (Group 3), CBG at 30 mg/kg (Group 4), Compound 1 at 31.5 mg/kg (Group 5), Compound 2 at 32.7 mg/kg (Group 6) or CBG at 30 mg/kg (intraperitoneal/IP; Group 7). Groups 1-6 were dosed for 4 days by oral gavage; group 7 was dosed for 4 days by IP injection. After the 4th injection, Groups 2-7 received a single IP injection of LPS at 5 mg/kg to induce inflammation. Body weight was recorded every other day starting on the day of or day prior to the first day of treatment. A terminal body weight was recorded. General health and clinical signs were recorded once daily. Blood was collected to isolate immune cells at 2 hours after the LPS injection. […]
Serum samples (N=82) were processed and shipped to Inotiv Boulder for analysis. […] The samples were analyzed for cytokine levels using the RECYTMAG-65K Luminex™ kit. […]

PTZ-induced seizure = assay: PTZ-induced epilepsy mouse model; type: in vivo; details: for Latency to Clonic Seizure Event compared to PTZ alone / Latency to First Seizure Event compared to PTZ alone / Latency to Tonic Seizure Event compared to PTZ alone / Percent of animals reaching Tonic-clonic Stage 6 compared to PTZ alone / Racine scores over 5 minute intervals for 30 minutes compared to PTZ alone / Survival Effects: mortality rate compared to the vehicle/PTZ group: PTZ 80 mg/kg, CBD 100 mg/kg 60 minutes prior, Compound 3 100 mg/kg 30 minutes prior to PTZ
Text: Mouse models using GABAa receptor antagonist Pentylenetetrazol (PTZ) are well defined and used as a standard for the identification of potential anticonvulsants to treat generalized clonic seizures (Loscher et al., 1991 Epilepsy Res 8:171-189). The purpose of this study was to evaluate and compare CBD to test article Compound 3, on their therapeutic effects in a mouse model of PTZ-induced seizure. To match up test article plasma concentration time max (Tmax) with the PTZ induced seizures; test articles were administered at 60 minutes and 30 minutes prior to PTZ administration respectively. Vehicle used for treatment groups was 10% EtOH/10% Tween 80/80% Saline.
Mice were acclimated to the procedure room for at least 30 minutes.
Pentylenetetrazole (PTZ; Sigma Aldrich) was formulated in water to a concentration of 16 mg/mL. Injections of PTZ were made at a volume of 5 mL/kg to produce a final dose of 80 mg/kg. […] A 30- • minute maximum latency to seizure was imposed. • Clinical behavior was scored using the following adapted Racine scale: • Score 0, no seizures observed • Score 1, Behavioral arrest (freezing, fixed gaze, staring), vibrissae twitching, • mouth or facial clonus • Score 2, Pop or jump, straub tail, foot splay, head nodding • Score 3, Forelimb clonus, extended forelimbs, multiple pops or jerks • Score 4, Rearing and bilateral forelimb clonus, Running and running/bouncing • Score 5, All limb clonus, rearing and falling (stay fallen on rear side) • Score 6, Tonic hindlimb extensions, cardiac arrest
Behavior was scored by an observer blind to treatment. The highest score reached during every 5 minute period during the 30 minutes after PTZ was administered was recorded. Additionally, the percent tonic-clonic (number of animals progressing to the highest seizure score), and percent mortality was also calculated.

HCT116 = assay: GI50 by MTS assay; type: cell-based; details: MTS assay, HCT116, 48 hours
Protocol: For MTS assay, the compounds have been tested at 8 concentrations on 4 colon cancer cell lines for 48 hours. The compounds, concentrations and colon cancer cell line panel tested are the following: • CBG: 0 μM, 1.25 μM, 2.5 μM, 5 μM, 10 μM, 20 μM, 40 μM, and 80 μM. • Compound 1: 0 μM, 1.25 μM, 2.5 μM, 5 μM, 10 μM, 20 μM, 40 μM, and 80 μM. • Compound 2: 0 μM, 1.25 μM, 2.5 μM, 5 μM, 10 μM, 20 μM, 40 μM, and 80 μM. • Colon cancer cell line panel: SW620, HCT15, HT29, HCTl16
Four colon cancer cell lines of SW620, HCT15, HT29, and HCT116 were included in the colon cancer cell line panel.
CBG, compound 1 and compound 2 were dissolved in DMSO at a concentration of 10 mM and stored at −20° C.
Evaluation of DM compounds treatment-induced growth inhibition was performed to determine the GI50 of four colon cancer cell lines with MTS assay or clonogenic assay. Each experiment was repeated in triplicate. In GraphPad Prism, data were log-transformed and fit with a nonlinear curve to calculate the GI50.
MTS assay. cells were plated at 96 well plates at a density of 1,000 cells per well. After 24 hours, cells were treated with DM compounds at increasing concentrations or DMSO vehicle and incubated for 48 hours. 20 μl of MTS reagent (Promega) was then added and incubated for 2 hours. The absorbance was measured with a microplate reader at 490 nm. Each experiment was repeated in triplicate. In GraphPad Prism, data were log-transformed and fit with a nonlinear curve to calculate the GI50.

CN1CCN(CCCN2c3ccccc3Sc3ccc(C(F)(F)F)cc32)CC1 [Trifluoperazine, trifluoperazine]
microsomal CLint at 1 µM (UGT1A4; human, recombinant UGT1A4 Supersomes, pH 7.4, Test Conc. 1 μM, read-out: Recombinant UGT CLINT Clearance): 0.7 µL/min/mg | half-life at 1 µM (UGT1A4; human, recombinant UGT1A4 Supersomes, pH 7.4, Test Conc. 1 μM, read-out: Recombinant UGT Half Life T1/2): 16.4 h

C=C(C)[C@@H]1CCC(C)=C[C@H]1c1c(O)cc(CCCCC)cc1OC [Compound 3, (1′R,2′R)-6-methoxy-5′-methyl-4-pentyl-2′-(prop-1-en-2-yl)-1′,2′,3′,4′-tetrahydro-[1,1′-biphenyl]-2-ol]
Cmax relative to CBD ([1]; IP): 8 fold | plasma PK Area Under the Curve (AUC) relative to CBD ([1]; IP): over 4 fold | Cmax ([1]; plasma, 100 mg/kg IP): 21800 ng/mL | AUC(0-t) ([1]; plasma, 100 mg/kg IP): 30200 ng·h/mL | TMax ([1]; plasma, 100 mg/kg IP): 0.5 h | reduction of IL-1B and IFNy relative to CBG (in words) [2]: equal to or better than CBG | Latency to Clonic Seizure Event compared to PTZ alone (PTZ-induced seizure): did not yield a significantly different latency; also recorded: strong trend toward longer latency | Latency to First Seizure Event compared to PTZ alone (PTZ-induced seizure): trended towards a longer latency than PTZ alone, although the difference was not significant | Latency to Tonic Seizure Event compared to PTZ alone (PTZ-induced seizure): significantly longer latency | Percent of animals reaching Tonic-clonic Stage 6 compared to PTZ alone (PTZ-induced seizure): significantly lower proportion | Racine scores over 5 minute intervals for 30 minutes compared to PTZ alone (PTZ-induced seizure): significant improvement in Racine scores | Survival Effects: mortality rate compared to the vehicle/PTZ group (PTZ-induced seizure): significantly reduced mortality rate | overall anti-epileptic activity (in words) (PTZ-induced seizure; PTZ seizure model): clear anti-epileptic therapeutic activity

CCCCCc1cc(O)c(C/C=C(\C)CCC=C(C)C)c(OC)c1 [Cmpd1]
GI50 (HCT116; average of N1-N3, read-out: GI50 AVG): 10.3 µM | GI50 (HCT116; replicate N1, read-out: GI50 N1): 10.5 µM | GI50 (HCT116; replicate N2, read-out: GI50 N2): 9.96 µM | GI50 (HCT116; replicate N3, read-out: GI50 N3): 10.5 µM

C[N+]1([C@@H]2O[C@H](C(=O)[O-])[C@@H](O)[C@H](O)[C@H]2O)CCN(CCCN2c3ccccc3Sc3ccc(C(F)(F)F)cc32)CC1 [Trifluoperazine Glucuronide]
average peak area ratio at 60 min/average peak area ratio at 0 min (printed in the half-life column) (UGT1A4; Test Conc. 1 μM): *6.38

C=C(C)[C@@H]1CCC(C)=C[C@H]1c1c(O)cc(CCCCC)cc1O [CBD, cannabidiol, reference compound]
Tmax (in words) ([1]; IP): two separate Tmax peaks | Cmax ([1]; plasma, 100 mg/kg IP): 2730 ng/mL | AUC(0-t) ([1]; plasma, 100 mg/kg IP): 6830 ng·h/mL | Latency to Clonic Seizure Event compared to PTZ alone (PTZ-induced seizure): did not yield a significantly different latency | Latency to First Seizure Event compared to PTZ alone (PTZ-induced seizure): did not result in a difference in latency to first seizure | Latency to Tonic Seizure Event compared to PTZ alone (PTZ-induced seizure): did not yield a significantly different latency | Percent of animals reaching Tonic-clonic Stage 6 compared to PTZ alone (PTZ-induced seizure): did not yield a significantly difference in proportion; also recorded: did not yield a significant difference in proportion | Racine scores over 5 minute intervals for 30 minutes compared to PTZ alone (PTZ-induced seizure): did not yield a significant change in clinical score | Survival Effects: mortality rate compared to the vehicle/PTZ group (PTZ-induced seizure): did not yield a significantly reduced mortality rate
